Reference: patent publication US20230212193A1, “CRYSTALLINE RET INHIBITOR” (Loxo Oncology, Inc., priority 2020, published 2023)
Values after ≈ are worked out from the molar mass of the structure shown. Values belong to the compound of their own block, whether it stands above or below them.

Key:
Format in all cases: physicochemical
[1] = solubility in organic solvents
[2] = hygroscopicity comparison of polymorphs; settings: anhydrous polymorphs compared
[3] = equilibrium solubility in aqueous media and simulated fluids
Experimental: Solubility studies were completed on the crystal form of selpercatinib described herein. Aqueous media covering the physiological pH range and three simulated fluids were used in these studies. A sufficient quantity of solid compound to saturate the volume of solvent is weighed into a vessel with approximately 1 mL of the specified solvent. […] After equilibration, samples are transferred to centrifuge filters (Durapore PVDF, 0.22 µm pore size) and centrifuged for 3 min at 10,000 rpm, while maintaining 37° C. A 100 µL aliquot is then withdrawn from each sample and diluted with 900 µL of 50:50 acetonitrile:water. The pH of the filtrate is recorded using calibrated scientific pH equipment. The solution concentration of the compound is determined by HPLC using an Agilent Zorbax Bonus-RP 4.6 × 75 mm, 3.5 µm column under the following conditions:; temperature is 30° C.; injection volume is 4 µL; ultraviolet detection at 238 nm; flow rate is 1.5 mL/min; autosampler temperature is 25° C.; mobile phase A is 0.1% trifluoroacetic acid in water; and mobile phase B is 0.1% trifluoroacetic acid in acetonitrile. The HPLC gradient is as follows: 0 min -95% A, 5% B; 9.5 min - 23% A, 77% B; 12.1 min - 23% A, 77% B; 13 min - 5% A, 95% B; 16 min - 5% A, 95% B; 16.1 min - 95% A, 5% B; 20 min - 95% A, 5% B. The table below (Table 3) details the equilibrium solubility data and equilibrium pH, reported as a mean of duplicate sample preparations. The solid form of the residual solid from the centrifuge sample is verified by XRPD, as noted in Table 5.

[4] = accelerated stability study of Form B (open dish, temperature/humidity; XRPD and HPLC); set-up: key to Crystal Form (XRPD vs unstressed time 0 sample): NC: No Change
Text: Physical and chemical stability of Form B is an important attribute not only with respect to ensuring dissolution and solubility, but also for API and dosage form drug development and manufacturing operations (drying, storage, shipping transfers, etc.). Not all crystalline forms have the needed stability to enable drug development. A crystal form that is stable with respect to both temperature and humidity is desired. In order to assess the stability of the crystal form of selpercatinib an accelerated stability study iss carried out. Samples of Form B are weighed into 20 mL scintillation vials and placed (open dish) into bell jars with saturated salt solutions in ovens at the specified temperatures and for the specified times in Table 4. The Form B is analyzed before and after the accelerated stability study and is collected on a Bruker D8 Advance XRPD, equipped with a CuKα source (wavelength = 1.54056 Å) and a Linxeye detector, and operating at 40 kV and 40 mA, with a 0.2 mm divergence slit. Each sample is scanned from 4° to 30° 2θ in 0.02° steps at a rate of 0.2 seconds per step. Assay and impurities relative to the starting material are assessed using an Agilent 1260 HPLC System with Diode Array Detector. Samples are prepared at appropriate concentrations in 50/50 0.1%TFA in water/0.1%TFA in ACN and evaluated using the following HPLC conditions: Column Zorbax Bonus-RP, 75 × 4.6 mm i.d., 3.5 micron, mobile phase A is 0.1% TFA in water, mobile phase B is 0.1% TFA in ACN, gradient is 95% A at time 0, 23% A at time 9.5-12.1 minutes, 5% A at time 13-16 minutes, 95% A at time 16.1-20 minutes with a flow rate of 1.5 mL/min, a column temperature of 30° C., UV detection wavelength of 210 nm, and injection volume of 3 µL.

solubility in many organic solvents, including MEK, acetone, and many alcohol based solvents ([1]; 25° C.): poor
solubility ([1]; dichloromethane, dimethylsulfoxide and THF, organic solvent or mixture, 25° C., called moderate solubility, read-out: solubility in dichloromethane (DCM), dimethylsulfoxide (DMSO) and THF): 3000 to 30000 µg/mL (≈ 5710 to 57100 µM)
hygroscopicity [2]: slightly more hygroscopic than Form B
Compound: COc1ccc(CN2C3CC2CN(c2ccc(-c4cc(OCC(C)(C)O)cn5ncc(C#N)c45)cn2)C3)cn1 [Form A, 6-(2-hydroxy-2-methylpropoxy)-4-(6-(6-((6-methoxypyridin-3-yl)methyl)-3,6-diazabicyclo[3.1.1]heptan-3-yl)pyridin-3-yl)pyrazolo[1,5-a]pyridine-3-carbonitrile]

solubility in anisole [1]: almost no solubility
Equilibrium pH ([3]; 0.01N HCl, 37° C., 24-hour equilibration): 3.634
Equilibrium pH ([3]; 0.01 N NaOH, 37° C., 24-hour equilibration): 9.985
Equilibrium pH ([3]; 0.1N HCl, 21.5° C. (ambient)): 1.297
Equilibrium pH ([3]; FaSSIF, 37° C., 24-hour equilibration): 6.445
Equilibrium pH ([3]; FeSSIF, 37° C., 24-hour equilibration): 4.928
Equilibrium pH ([3]; SGF (simulated gastric fluid), 37° C., 24-hour equilibration): 2.644
Equilibrium pH ([3]; Water, 37° C., 24-hour equilibration): 7.146
solubility at 24 h ([3]; aqueous buffer, thermodynamic from solid, 0.01 N NaOH, 37° C., 24-hour equilibration): 1.1 µg/mL (≈ 2.09 µM)
solubility ([3]; aqueous media, 37 °C, thermodynamic from solid, indicated by the aqueous solubility results, read-out: intrinsic solubility): ~1 µg/mL (≈ 1.9 µM)
solubility at 24 h ([3]; citrate/phosphate buffer pH 4.0, aqueous buffer, thermodynamic from solid, pH 4.0 Citrate/Phosphate, 37° C., 24-hour equilibration): 712 µg/mL (≈ 1350 µM)
solubility at 24 h ([3]; pH 1.297, simulated gastric fluid, thermodynamic from solid, 0.1N HCl, measured at 21.5° C. (ambient), 24-hour equilibration): ≥ 10000 µg/mL
solubility at 24 h ([3]; pH 2.644, thermodynamic from solid, SGF (simulated gastric fluid), 37° C., 24-hour equilibration, retained solids non-crystalline by XRPD): 1440 µg/mL (≈ 2740 µM)
solubility at 24 h ([3]; pH 3.634, simulated gastric fluid, thermodynamic from solid, 0.01N HCl, 37° C., 24-hour equilibration): 4770 µg/mL (≈ 9080 µM)
Equilibrium pH ([3]; pH 4.0 Citrate/Phosphate, 37° C., 24-hour equilibration): 4.134
Equilibrium pH ([3]; pH 4.5 Acetate (USP), 37° C., 24-hour equilibration): 4.496
solubility at 24 h ([3]; pH 4.5 acetate buffer (USP), aqueous buffer, thermodynamic from solid, pH 4.5 Acetate (USP), 37° C., 24-hour equilibration): 169 µg/mL (≈ 322 µM)
Equilibrium pH ([3]; pH 6.0 Phosphate (USP), 37° C., 24-hour equilibration): 6.027
solubility at 24 h ([3]; pH 6.0 phosphate buffer (USP), aqueous buffer, thermodynamic from solid, pH 6.0 Phosphate (USP), 37° C., 24-hour equilibration): 8.6 µg/mL (≈ 16.4 µM)
solubility at 24 h ([3]; pH 7.146, thermodynamic from solid, Water, 37° C., 24-hour equilibration): 3.6 µg/mL (≈ 6.85 µM)
Equilibrium pH ([3]; pH 7.5 Phosphate (USP), 37° C., 24-hour equilibration): 7.526
solubility at 24 h ([3]; pH 7.5 phosphate buffer (USP), aqueous buffer, thermodynamic from solid, pH 7.5 Phosphate (USP), 37° C., 24-hour equilibration): 2.2 µg/mL (≈ 4.19 µM)
solubility at 24 h ([3]; thermodynamic from solid, FaSSIF (fasted-state simulated intestinal fluid, pH 6.5), 37° C., 24-hour equilibration): 9.6 µg/mL (≈ 18.3 µM)
solubility at 24 h ([3]; thermodynamic from solid, FeSSIF (fed-state simulated intestinal fluid, pH 5.0), 37° C., 24-hour equilibration): 228 µg/mL (≈ 433 µM)
Assay (%) in comparison to the unstressed (time 0) sample ([4]; 7 days, 40 °C, 11% RH): 99.2%
Crystal Form (XRPD vs unstressed time 0 sample) ([4]; 7 days, 40 °C, 11% RH): NC
Impurities (%) ([4]; 7 days, 40 °C, 11% RH): 0.10%
Assay (%) in comparison to the unstressed (time 0) sample ([4]; 7 days, 40 °C, 75% RH): 99.4%
Crystal Form (XRPD vs unstressed time 0 sample) ([4]; 7 days, 40 °C, 75% RH): NC
Impurities (%) ([4]; 7 days, 40 °C, 75% RH): 0.11%
Assay (%) in comparison to the unstressed (time 0) sample ([4]; 7 days, 50 °C, 30% RH): 99.4%
Crystal Form (XRPD vs unstressed time 0 sample) ([4]; 7 days, 50 °C, 30% RH): NC
Impurities (%) ([4]; 7 days, 50 °C, 30% RH): 0.09%
Assay (%) in comparison to the unstressed (time 0) sample ([4]; 7 days, 50 °C, 50% RH): 99.2%
Crystal Form (XRPD vs unstressed time 0 sample) ([4]; 7 days, 50 °C, 50% RH): NC
Impurities (%) ([4]; 7 days, 50 °C, 50% RH): 0.10%
Assay (%) in comparison to the unstressed (time 0) sample ([4]; 7 days, 70 °C, 11% RH): 100.7%
Crystal Form (XRPD vs unstressed time 0 sample) ([4]; 7 days, 70 °C, 11% RH): NC
Impurities (%) ([4]; 7 days, 70 °C, 11% RH): 0.09%
Assay (%) in comparison to the unstressed (time 0) sample ([4]; 7 days, 70 °C, 75% RH): 100.3%
Crystal Form (XRPD vs unstressed time 0 sample) ([4]; 7 days, 70 °C, 75% RH): NC
Impurities (%) ([4]; 7 days, 70 °C, 75% RH): 0.10%
Assay (%) in comparison to the unstressed (time 0) sample ([4]; 14 days, 40 °C, 11% RH): 99.9%
Crystal Form (XRPD vs unstressed time 0 sample) ([4]; 14 days, 40 °C, 11% RH): NC
Impurities (%) ([4]; 14 days, 40 °C, 11% RH): 0.09%
Assay (%) in comparison to the unstressed (time 0) sample ([4]; 14 days, 40 °C, 75% RH): 99.9%
Crystal Form (XRPD vs unstressed time 0 sample) ([4]; 14 days, 40 °C, 75% RH): NC
Impurities (%) ([4]; 14 days, 40 °C, 75% RH): 0.10%
Assay (%) in comparison to the unstressed (time 0) sample ([4]; 14 days, 50 °C, 30% RH): 100.5%
Crystal Form (XRPD vs unstressed time 0 sample) ([4]; 14 days, 50 °C, 30% RH): NC
Impurities (%) ([4]; 14 days, 50 °C, 30% RH): 0.09%
Assay (%) in comparison to the unstressed (time 0) sample ([4]; 14 days, 50 °C, 50% RH): 100.4%
Crystal Form (XRPD vs unstressed time 0 sample) ([4]; 14 days, 50 °C, 50% RH): NC
Impurities (%) ([4]; 14 days, 50 °C, 50% RH): 0.11%
Assay (%) in comparison to the unstressed (time 0) sample ([4]; 14 days, 70 °C, 11% RH): 99.3%
Crystal Form (XRPD vs unstressed time 0 sample) ([4]; 14 days, 70 °C, 11% RH): NC
Impurities (%) ([4]; 14 days, 70 °C, 11% RH): 0.10%
Assay (%) in comparison to the unstressed (time 0) sample ([4]; 14 days, 70 °C, 75% RH): 100.9%
Crystal Form (XRPD vs unstressed time 0 sample) ([4]; 14 days, 70 °C, 75% RH): NC
Impurities (%) ([4]; 14 days, 70 °C, 75% RH): 0.11%
stability under the testing conditions ([4]; accelerated stability study, conditions of Table 4): chemically and physically stable
Impurities (%) ([4]; time point 0 days, unstressed sample): 0.09%
Compound: COc1ccc(CN2C3CC2CN(c2ccc(-c4cc(OCC(C)(C)O)cn5ncc(C#N)c45)cn2)C3)cn1 [Form B, 6-(2-hydroxy-2-methylpropoxy)-4-(6-(6-((6-methoxypyridin-3-yl)methyl)-3,6-diazabicyclo[3.1.1]heptan-3-yl)pyridin-3-yl)pyrazolo[1,5-a]pyridine-3-carbonitrile]
